# Source: PMC10786919, “Design-rules for stapled peptides with in vivo activity and their application to Mdm2/X antagonists” (Nature Communications, 2024)
# Like-named read-outs stand apart in the source and are kept apart here. Positions of bridges follow the written chain, without caps; N, C: chain ends. Non-standard residues stand in square brackets, D forms with d. Residues, ends and D or L forms follow the SMILES beside them. Lys(N3) = [N-]=[N+]=NCCCC[C@H](N)C(=O)O; R8 = C=CCCCCCC[C@@](C)(N)C(=O)O; Cba = N[C@@H](CC1CCC1)C(=O)O; S5 = C=CCCC[C@](C)(N)C(=O)O; hSer = N[C@@H](CCO)C(=O)O; Aib = CC(C)(N)C(=O)O; βAla = NCCC(=O)O; Sar = CNCC(=O)O
# Tests used:
# [1] = Lactate dehydrogenase (LDH) release assay; assay type: cell-based
# Procedure, shortened: (§1)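 HCT116 cells stably carrying a p53-responsive β-lactamase reporter were seeded at 8000 cells per well with a final DMSO level of 0.5%. Membrane integrity was assessed by lactate dehydrogenase release using a homogeneous fluorometric kit. Values are geometric means of at least three biological replicates.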
# [2] = Solubility assay (kinetic solubility, PBS pH 7); assay type: physicochemical; conditions: for solubility kinetic: pH 7, aqueous buffer, kinetic from dmso stock, read-out: Solubility
# Procedure, shortened: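 Next, measure peak areas of sample and standard. Finally, multiply their ratio by the standard concentration to obtain solubility (µM).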
# [3] = test system: Ca Ski cell line; conditions: 72 h
# Protocol: (§2) The medium for CellSensor™ p53RE-bla HCT-116 cells was McCoy’s 5 A Medium (GIBCO16600-002) supplied with 10% FBS (Hyclone, SH30406.05), 100 U/100ug/ml of Pen/Strep (SolarBio, P1400) and 5 μg/ml of blasticidin (GIBCO, A11139). The medium for Ca Ski cells was RPMI1640 (Hyclone, SH3080901B) supplied with 10% FBS and 100 U/100ug/ml of Pen/Strep. All cells were kept in humidified incubators with 5% CO2 at 37 °C. Culture media was changed after one day of subculturing and cells were passed again when there was 70–80% confluence. One day before the assay, the cells were trypsinized, collected, counted and viability was determined. […] The plates were kept in humidified incubators with 5% CO2 at 37 °C overnight. Compounds were prepared as a 10 point, 3x serial dilution in 100% DMSO, starting from a top concentration of 10 mM. […] At the end of the incubation the assay plate was equilibrated at room temperature for approximately 30 minutes prior to the addition of 25 uL of CellTiter-Glo® 2.0 Reagent. The assay plate was mixed for 2 minutes on an orbital shaker to induce cell lysis. Next, the plate was incubated at room temperature for 10 minutes to stabilize the luminescent signal prior to recording the luminescence on a plate reader.
# [4] = test system: CellSensor p53RE-bla HCT-116 Cell Line; conditions: 72 h
# Protocol: as §2
# [5] = in vitro
# Procedure, shortened: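 Azido-peptide permeability was read as loss of NanoBRET signal (donor 450 nm, acceptor 610 nm) after adding NanoBret618-azide at 10 μM final.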
# [6] = Experimental LogD (partition coefficient); conditions: for logD: Partition Coeff LogD
# [7] = test system: HCT116 cells; experiment: Lactate dehydrogenase (LDH) release assay; assay type: cell-based
# Procedure, shortened: as §1
# [8] = physchem
# [9] = Nanoclick permeability assay EC50
# [10] = 0% FBS 4Hr, read-out: LDH: Cytotoxicity assay: EC50
# [11] = 10% FBS 4Hr, read-out: LDH: Cytotoxicity assay: EC50
compound,measurement,setting,value
CC(=O)N[C@@H](CCCCN=[N+]=[N-])C(=O)NCCC(=O)N[C@@H](CC(C)C)C(=O)N[C@H](C(=O)N[C@@H](Cc1ccccc1)C(=O)N[C@]1(C)CCCCCCC=CCCC[C@@](C)(C(=O)N[C@@H](C)C(=O)N[C@@H](CCO)C(=O)N[C@@H](C)C(=O)N[C@@H](C)C(=O)N[C@@H](C)C(=O)N[C@H](C)C(N)=O)NC(=O)[C@H](CC2CCC2)NC(=O)[C@H](CCC(N)=O)NC(=O)[C@H](C)NC(=O)[C@H](Cc2c[nH]c3ccccc23)NC(=O)[C@H](Cc2ccc(O)cc2)NC(=O)[C@H](CCC(=O)O)NC1=O)[C@@H](C)O [MP-831] (Ac-[Lys(N3)][βAla]LTF[R8]EYWAQ[Cba][S5]A[hSer]AAA[dA]-NH2; staple 6-13),EC50,[1]; LDH: Cytotoxicity assay EC50,> 50.7 µM
same,solubility kinetic,"[2]; pH 7, PBS",175 µM
same,EC50,[3],> 49.8 µM
same,EC50,[4],0.428 µM
same,cell entry EC50,[5]; [9],> 10 µM
same,logD,[6]; not stated,3.13
CC(=O)N[C@@H](CCCCN=[N+]=[N-])C(=O)NCCC(=O)N[C@@H](CC(C)C)C(=O)N[C@H](C(=O)N[C@@H](Cc1ccccc1)C(=O)N[C@]1(C)CCCCCCC=CCCC[C@@](C)(C(=O)N[C@@H](C)C(=O)N[C@@H](C)C(=O)N[C@@H](Cc2ccccc2)C(=O)NC(C)(C)C(=O)N[C@@H](C)C(=O)N[C@@H](C)C(N)=O)NC(=O)[C@H](CC2CCC2)NC(=O)[C@H](CCC(N)=O)NC(=O)[C@H](C)NC(=O)[C@H](Cc2c[nH]c3ccccc23)NC(=O)[C@H](Cc2ccc(O)cc2)NC(=O)[C@H](CCC(=O)O)NC1=O)[C@@H](C)O [MP-801] (Ac-[Lys(N3)][βAla]LTF[R8]EYWAQ[Cba][S5]AAF[Aib]AA-NH2; staple 6-13),Solubility,"[2]; pH 7, PBS",Poorly Behaved
same,EC50,[3],19.1 µM
same,EC50,[4],4.58 µM
same,cell entry EC50,[5]; [9],4.71 µM
same,Partition Coeff LogD,[6],Poorly Behaved
CC(=O)N[C@@H](CCCCN=[N+]=[N-])C(=O)NCCC(=O)N[C@@H](CC(C)C)C(=O)N[C@H](C(=O)N[C@@H](Cc1ccccc1)C(=O)N[C@]1(C)CCCCCCC=CCCC[C@@](C)(C(=O)N[C@@H](C)C(=O)N[C@@H](C)C(=O)N[C@@H](C)C(=O)N[C@@H](C)C(=O)N[C@@H](C)C(N)=O)NC(=O)[C@H](CC2CCC2)NC(=O)[C@H](CCC(N)=O)NC(=O)[C@H](C)NC(=O)[C@H](Cc2c[nH]c3ccccc23)NC(=O)[C@H](Cc2ccc(O)cc2)NC(=O)[C@H](CCC(=O)O)NC1=O)[C@@H](C)O [MP-685] (Ac-[Lys(N3)][βAla]LTF[R8]EYWAQ[Cba][S5]AAAAA-NH2; staple 6-13),EC50,[1]; LDH: Cytotoxicity assay EC50,> 50.7 µM
same,EC50,[3],22.8 µM
same,EC50,[4],9.55 µM
same,cell entry EC50,[5]; [9],> 10 µM
CC(=O)N[C@@H](CCCCN=[N+]=[N-])C(=O)NCCC(=O)N[C@@H](CC(C)C)C(=O)N[C@H](C(=O)N[C@@H](Cc1ccccc1)C(=O)N[C@]1(C)CCCCCCC=CCCC[C@@](C)(C(=O)N[C@@H](C)C(=O)N[C@@H](C)C(=O)N[C@H](C)C(=O)N[C@@H](C)C(=O)N[C@@H](C)C(=O)N[C@H](C)C(N)=O)NC(=O)[C@H](CC2CCC2)NC(=O)[C@H](CCC(N)=O)NC(=O)[C@H](C)NC(=O)[C@H](Cc2c[nH]c3ccccc23)NC(=O)[C@H](Cc2ccc(O)cc2)NC(=O)[C@H](CCC(=O)O)NC1=O)[C@@H](C)O [MP-425] (Ac-[Lys(N3)][βAla]LTF[R8]EYWAQ[Cba][S5]AA[dA]AA[dA]-NH2; staple 6-13),EC50,[1]; LDH: Cytotoxicity assay EC50,> 50.7 µM
same,solubility kinetic,"[2]; pH 7, PBS",185 µM
same,EC50,[3],47.3 µM
same,EC50,[4],1.27 µM
CC(=O)N[C@@H](CCCCN=[N+]=[N-])C(=O)NCCC(=O)N[C@@H](CC(C)C)C(=O)N[C@H](C(=O)N[C@@H](Cc1ccccc1)C(=O)N[C@]1(C)CCCCCCC=CCCC[C@@](C)(C(=O)N[C@@H](CCO)C(=O)N[C@@H](CCO)C(=O)N[C@@H](Cc2ccccc2)C(=O)N[C@@H](CCO)C(=O)N[C@@H](CCO)C(=O)N[C@@H](Cc2ccccc2)C(N)=O)NC(=O)[C@H](CC2CCC2)NC(=O)[C@H](CCC(N)=O)NC(=O)[C@H](C)NC(=O)[C@H](Cc2c[nH]c3ccccc23)NC(=O)[C@H](Cc2ccc(O)cc2)NC(=O)[C@H](CCC(=O)O)NC1=O)[C@@H](C)O [MP-802],EC50,[1]; LDH: Cytotoxicity assay EC50,> 50.7 µM
same,Solubility,[2],P.B.
same,EC50,[4],4.58 µM
same,cell entry EC50,[5]; [9],9.16 µM
same,logD,[6]; not stated,3.08
CC(=O)N[C@@H](CCCCN=[N+]=[N-])C(=O)NCCC(=O)N[C@@H](CC(C)C)C(=O)N[C@H](C(=O)N[C@@H](Cc1ccccc1)C(=O)N[C@]1(C)CCCCCCC=CCCC[C@@](C)(C(=O)N[C@@H](CO)C(=O)N[C@@H](C)C(=O)N[C@@H](C)C(N)=O)NC(=O)[C@H](CC2CCC2)NC(=O)[C@H](CCC(N)=O)NC(=O)CN(C)C(=O)[C@H](Cc2c[nH]c3ccccc23)NC(=O)[C@H](Cc2ccc(O)cc2)NC(=O)[C@H](CCC(=O)O)NC1=O)[C@@H](C)O [MP-351] (Ac-[Lys(N3)][βAla]LTF[R8]EYW[Sar]Q[Cba][S5]SAA-NH2; staple 6-13),EC50,[1]; LDH: Cytotoxicity assay: EC50,> 50 µM
same,LDH: Cytotoxicity assay: % Effect,[7],-3.92%
same,solubility kinetic,"[2]; pH 7, PBS",29 µM
same,cell entry EC50,[5]; [9],> 10 µM
same,EPSA,[8],193 A^2
same,logD,[6]; not stated,2.26
"CC(=O)N[C@@H](CCCCN=[N+]=[N-])C(=O)NCCC(=O)N[C@@H](C)C(=O)N[C@H](C(=O)N[C@@H](Cc1ccccc1)C(=O)N[C@]1(C)CCCCCCC=CCCC[C@@](C)(C(=O)N[C@@H](C)C(=O)N[C@@H](C)C(=O)N[C@@H](C)C(N)=O)NC(=O)[C@H](CC2CCC2)NC(=O)[C@H](C)NC(=O)[C@H](C)NC(=O)[C@H](Cc2c[nH]c3ccccc23)NC(=O)[C@H](Cc2ccc(O)cc2)NC(=O)[C@H](C)NC1=O)[C@@H](C)O [MP-350, Azide-ATSP-7041 (L1A, E5A, Q9A, S12A)] (Ac-[Lys(N3)][βAla]ATF[R8]AYWAA[Cba][S5]AAA-NH2; staple 6-13)",EC50,[1]; [10],> 50.7 µM
same,EC50,[1]; [11],> 50 µM
same,EC50,"[1]; 10% FBS 16Hr, read-out: LDH: Cytotoxicity assay: EC50",> 50.7 µM
same,LDH: Cytotoxicity assay: % Effect,[7]; 0% FBS 4Hr,-5.38%
same,LDH: Cytotoxicity assay: % Effect,[7]; 10% FBS 4Hr,108.5%
same,LDH: Cytotoxicity assay: % Effect,[7]; 10% FBS 16Hr,-2.204%
same,solubility kinetic,"[2]; pH 7, PBS",2 µM
same,cell entry EC50,[5],0.695 µM
same,EPSA,[8],196 A^2
same,logD,[6]; experimental,3.37
same,logD,[6]; not stated,3.37
CC(C)C[C@H](NC(=O)CCNC(=O)[C@@H](N)CCCCN=[N+]=[N-])C(=O)N[C@H](C(=O)N[C@@H](Cc1ccccc1)C(=O)N[C@]1(C)CCCCCCC=CCCC[C@@](C)(C(N)=O)NC(=O)[C@H](CC(C)C)NC(=O)[C@H](CC(C)C)NC(=O)[C@H](C)NC(=O)[C@H](Cc2c[nH]c3ccccc23)NC(=O)[C@H](Cc2ccc(O)cc2)NC(=O)[C@H](CCC(=O)O)NC1=O)[C@@H](C)O [MP-0176] (H-[Lys(N3)][βAla]LTF[R8]EYWALL[S5]-NH2; staple 6-13),EC50,[1]; LDH: Cytotoxicity assay: EC50,> 50.6 µM
same,LDH: Cytotoxicity assay: % Effect,[7],6.97%
same,Solubility,"[2]; pH 7, PBS",Poorly Behaved
same,cell entry EC50,[5]; [9],0.217 µM
same,EPSA,[8],212 A^2
same,logD,[6]; not stated,2.85
"CC(=O)N[C@@H](CCCCN=[N+]=[N-])C(=O)NCCC(=O)N[C@@H](C)C(=O)N[C@H](C(=O)N[C@@H](Cc1ccccc1)C(=O)N[C@]1(C)CCCCCCC=CCCC[C@@](C)(C(=O)N[C@@H](CO)C(=O)N[C@@H](C)C(=O)N[C@@H](C)C(N)=O)NC(=O)[C@H](CC2CCC2)NC(=O)[C@H](C)NC(=O)[C@H](C)NC(=O)[C@H](Cc2c[nH]c3ccccc23)NC(=O)[C@H](Cc2ccc(O)cc2)NC(=O)[C@H](C)NC1=O)[C@@H](C)O [MP-209, AZIDE-ATSP-7041 (L1A, E5A, Q9A)] (Ac-[Lys(N3)][βAla]ATF[R8]AYWAA[Cba][S5]SAA-NH2; staple 6-13)",EC50,[1]; [10],> 50.6 µM
same,EC50,[1]; [11],> 50 µM
same,LDH: Cytotoxicity assay: % Effect,[7]; 0% FBS 4Hr,-1.35%
same,LDH: Cytotoxicity assay: % Effect,[7]; 10% FBS 4Hr,7.572%
same,solubility kinetic,"[2]; pH 7, PBS",2 µM
same,cell entry EC50,[5],0.906 µM
same,EPSA,[8],197 A^2
same,logD,[6]; not stated,3.32
CC(=O)N[C@@H](CCCCN=[N+]=[N-])C(=O)NCCC(=O)N[C@@H](CC(C)C)C(=O)N[C@H](C(=O)N[C@@H](CC1CCC1)C(=O)N[C@]1(C)CCCCCCC=CCCC[C@@](C)(C(=O)N[C@@H](CO)C(=O)N[C@@H](C)C(=O)N[C@@H](C)C(N)=O)NC(=O)[C@H](Cc2c[nH]c3ccccc23)NC(=O)[C@H](CCC(N)=O)NC(=O)[C@H](C)NC(=O)[C@H](Cc2ccccc2)NC(=O)[C@H](Cc2ccc(O)cc2)NC(=O)[C@H](CCC(=O)O)NC1=O)[C@@H](C)O [MP-791] (Ac-[Lys(N3)][βAla]LT[Cba][R8]EYFAQW[S5]SAA-NH2; staple 6-13),EC50,[1]; LDH: Cytotoxicity assay: EC50,34.6 µM
same,LDH: Cytotoxicity assay: % Effect,[7],45.16%
same,solubility kinetic,"[2]; pH 7, PBS",28 µM
same,cell entry EC50,[5]; [9],> 10 µM
same,EPSA,[8],197 A^2
same,logD,[6]; not stated,1.34
